Data on two molecules can be found in PMC6264766, “Fluorescence Resonance Energy Transfer Assay for High-Throughput Screening of ADAMTS1 Inhibitors” (Molecules, 2011).

The IC50 is the concentration that gives 50% inhibition.

For assay [1], the target named is T1, recombinant ADAMTS1 (p65-ADAMTS1) expressed in E. coli (Homo sapiens, UniProt Q9UHI8).
T1 construct: 1452 nt cDNA fragment (nt 1206-2657, 484 codons; propeptide and C-terminal part absent; primer starts at KRFVSS, ends ISGSVTSA); pET32a Trx fusion, Trx removed by enterokinase, C-terminal His tag; E. coli BL21(DE3); heparin-sepharose purified; fusion about 70 kDa
T1 sequence (Q9UHI8 251-734): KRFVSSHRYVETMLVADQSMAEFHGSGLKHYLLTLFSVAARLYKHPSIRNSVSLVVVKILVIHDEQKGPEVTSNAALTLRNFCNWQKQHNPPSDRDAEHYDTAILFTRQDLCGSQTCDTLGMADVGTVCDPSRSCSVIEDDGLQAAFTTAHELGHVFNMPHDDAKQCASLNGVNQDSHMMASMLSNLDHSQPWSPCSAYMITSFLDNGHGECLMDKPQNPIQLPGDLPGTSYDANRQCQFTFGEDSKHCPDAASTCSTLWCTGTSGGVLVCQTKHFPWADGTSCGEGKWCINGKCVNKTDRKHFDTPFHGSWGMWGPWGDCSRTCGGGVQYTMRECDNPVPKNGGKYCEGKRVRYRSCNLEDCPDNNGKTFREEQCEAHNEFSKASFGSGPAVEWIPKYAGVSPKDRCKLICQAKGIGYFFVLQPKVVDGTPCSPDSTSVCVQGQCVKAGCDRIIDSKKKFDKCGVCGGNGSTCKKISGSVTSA
The experiment in a line: FRET peptide cleavage assay (Abz/Dnp), dose-response. Type of assay: biochemical. The source says: FRET peptide cleavage assay (Abz/Dnp), dose-response on recombinant ADAMTS1 (p65-ADAMTS1) expressed in E. coli

The target of assay [2] is T2, human recombinant ADAMTS1 expressed in the murine myeloma cell line (R&D Systems) (Homo sapiens, UniProt Q9UHI8).
T2 construct: commercial recombinant protein from R&D Systems, murine myeloma cell line
T2 sequence (Q9UHI8 253-967): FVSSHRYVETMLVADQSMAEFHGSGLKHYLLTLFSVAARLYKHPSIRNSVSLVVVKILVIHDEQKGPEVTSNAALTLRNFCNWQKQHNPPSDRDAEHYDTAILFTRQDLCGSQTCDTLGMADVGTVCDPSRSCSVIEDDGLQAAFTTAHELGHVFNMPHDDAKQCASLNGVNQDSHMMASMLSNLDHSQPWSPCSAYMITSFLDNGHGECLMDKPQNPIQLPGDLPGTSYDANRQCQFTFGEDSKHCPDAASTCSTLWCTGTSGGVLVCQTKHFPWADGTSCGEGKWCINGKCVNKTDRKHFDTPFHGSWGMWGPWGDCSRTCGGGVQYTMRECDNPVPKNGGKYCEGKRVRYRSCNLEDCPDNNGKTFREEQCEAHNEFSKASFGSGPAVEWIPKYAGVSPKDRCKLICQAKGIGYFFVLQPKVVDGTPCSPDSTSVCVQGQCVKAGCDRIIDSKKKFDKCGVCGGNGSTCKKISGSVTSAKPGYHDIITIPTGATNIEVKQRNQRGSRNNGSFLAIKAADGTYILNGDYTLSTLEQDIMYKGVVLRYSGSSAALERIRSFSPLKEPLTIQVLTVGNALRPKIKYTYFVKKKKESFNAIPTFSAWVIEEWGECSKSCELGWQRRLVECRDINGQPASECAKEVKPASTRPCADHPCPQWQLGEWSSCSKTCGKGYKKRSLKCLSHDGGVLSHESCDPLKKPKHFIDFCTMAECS
The description is as above. Type of assay: biochemical. The source says:
FRET peptide cleavage assay (Abz/Dnp), dose-response on human recombinant ADAMTS1 expressed in the murine myeloma cell line (R&D Systems)

The structures appear in SMILES notation.

Consider `CC1=C[C@H](c2cc3cc(-c4cc(O)cc(O)c4)oc3cc2O)[C@@H](C(=O)c2ccc(O)cc2O)[C@H](c2ccc(O)cc2O)C1` [J14715, albafuran C], for which the IC50 in assay [1] was 11.9 ± 0.7 µM; in assay [2], 10.7 ± 0.6 µM.
For `CC1=C[C@H](c2cc(/C=C/c3cc(O)cc(O)c3)c(O)cc2O)[C@@H](C(=O)c2ccc(O)cc2O)[C@H](c2ccc(O)cc2O)C1` [J14713, kuwanon P], the IC50 in assay [1] was 7.6 ± 0.6 µM; in assay [2] it was 5.5 ± 0.4 µM.
